Measured values from US20110002969A1, “COSMETIC OR PHARMACEUTICAL COMPOSITIONS COMPRISING METALLOPROTEINASE INHIBITORS” (LIPOTEC, S.A., priority 2008, published 2011).
Values joined by “and” are separate entries in the source; they are usually repeats but may differ in a detail not shown here. Equal values may be shown once.

Experiments:
Type in all cases: biochemical
[1] = tested on: type IV collagenase; test: Collagenase inhibition trial (EnzChek Gelatinase/Collagenase Assay Kit, DQ Gelatin fluorescence); settings: peptides at 2 mg/mL, preincubated 1 hour with 0.1 unit/mL type IV collagenase; DQ Gelatin 25 μg/mL, 2 hours; normalized to medium basal values
Description: Peptides were resuspended in water in the presence of 0.5% DMSO. The trial was carried out in black microplates having 96 well and the EnzChek®Gelatinase/Collagenase Assay Kit (Molecular Probes) was used. To that end, peptides were preincubated at 2 mg/mL during 1 hour with 0.1 unit/mL of type IV collagenase at room temperature with moderate agitation, after said time fluorescein conjugated substrate (DQ™ Gelatin) was added to a final concentration of 25 μg/mL and reactions were incubated for 2 hours at room temperature with agitation and protected from light. The substrate, whose flourescence is inhibited, is […] collagenase releasing flourescent fragments, monitored by florescence with a FLUOstar galaxy reader (BMG LabTechnologies), using 485 nm filters for excitation and 520 nm for emission.
Table 2 details those peptides whose collagenase inhibition values are higher than 25%. Inhibition values were normalized with respect to medium inhibition basal values.

[2] = molecular target: T1, Human MMP-2 (Homo sapiens, UniProt P08253); test: Human MMP inhibition, DQ Gelatin fluorescence; settings: peptides 0.5 mM, activated protease 0.35 μg/mL, 1 hour preincubation; DQ Gelatin 25 μg/mL, 16 hours; normalized to control fluorescence; in % (unit assumed)
T1 sequence (P08253 110-660): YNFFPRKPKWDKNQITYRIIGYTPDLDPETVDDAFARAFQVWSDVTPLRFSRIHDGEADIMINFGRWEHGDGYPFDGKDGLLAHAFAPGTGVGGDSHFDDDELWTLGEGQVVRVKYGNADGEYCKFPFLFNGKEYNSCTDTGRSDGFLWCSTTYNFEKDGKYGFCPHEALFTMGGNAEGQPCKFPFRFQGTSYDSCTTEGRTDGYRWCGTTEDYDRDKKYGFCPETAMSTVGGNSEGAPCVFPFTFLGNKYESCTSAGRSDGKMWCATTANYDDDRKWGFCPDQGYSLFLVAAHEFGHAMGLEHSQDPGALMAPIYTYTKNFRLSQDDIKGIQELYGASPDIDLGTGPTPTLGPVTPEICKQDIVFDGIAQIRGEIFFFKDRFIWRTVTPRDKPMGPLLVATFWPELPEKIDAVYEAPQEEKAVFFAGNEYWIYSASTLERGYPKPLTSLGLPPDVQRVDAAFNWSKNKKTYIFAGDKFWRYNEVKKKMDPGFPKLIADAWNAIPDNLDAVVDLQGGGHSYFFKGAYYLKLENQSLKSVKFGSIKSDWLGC
Description: (§1) Human MMPs were reconstructed in 50 mM Tris-HCl, 150 mM NaCl, 5 mM CaCl2, 0.2 mM NaN3 at a 7.6 pH and activated by reaction with 10 mM of 4-aminophenylmercuric acetate (dissolved in 0.01M NaOH) at a 10:1 to 37° C. ratio for 4-6 h. Activated proteases (0.35 μg/mL) were preincubated with peptides to a final 0.5 mM concentration in a 96-well black microplate for 1 hour at room temperature. After preincubation, 25 μg/mL substrate (DQ™ Gelatin) were added to the wells and samples were incubated for 16 hours at room temperature and protected against the light. Released flourescence by marked gelatin digestion was measured with an automated multiplate fluorescence reader, exciting at 485 nm and reading at 520 nm.
(§2) The results were corrected from basal flourescent value in MMP and product absence and normalized with respect to control fluorescence. Table 3 details the best inhibition values for peptides.

[3] = molecular target: Human MMP-9 (Homo sapiens, UniProt P14780); test: Human MMP inhibition, DQ Gelatin fluorescence; settings: peptides 0.5 mM, activated protease 0.35 μg/mL, 1 hour preincubation; DQ Gelatin 25 μg/mL, 16 hours; normalized to control fluorescence; in % (unit assumed)
Description: as §1, §2

[4] = molecular target: Human MMP-3 (Homo sapiens, UniProt P08254); test: Human MMP inhibition, DQ Gelatin fluorescence; settings: peptides 0.5 mM, activated protease 0.35 μg/mL, 1 hour preincubation; DQ Gelatin 25 μg/mL, 16 hours; normalized to control fluorescence
Description: as §1, §2

[5] = molecular target: T2, Human MMP-1 (Homo sapiens, UniProt P03956); test: Human MMP inhibition, DQ Gelatin fluorescence; settings: peptides 0.5 mM, activated protease 0.35 μg/mL, 1 hour preincubation; DQ Gelatin 25 μg/mL, 16 hours; normalized to control fluorescence
T2 sequence (P03956 100-469): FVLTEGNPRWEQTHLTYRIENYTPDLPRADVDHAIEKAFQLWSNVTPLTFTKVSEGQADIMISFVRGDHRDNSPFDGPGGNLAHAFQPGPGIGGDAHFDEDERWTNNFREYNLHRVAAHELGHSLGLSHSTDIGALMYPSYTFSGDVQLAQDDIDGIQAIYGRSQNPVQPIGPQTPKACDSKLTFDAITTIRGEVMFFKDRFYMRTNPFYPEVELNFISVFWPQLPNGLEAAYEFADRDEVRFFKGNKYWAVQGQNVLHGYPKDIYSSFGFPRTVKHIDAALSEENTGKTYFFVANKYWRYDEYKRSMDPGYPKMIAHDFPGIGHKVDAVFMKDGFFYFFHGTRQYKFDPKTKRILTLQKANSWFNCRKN
Description: as §1, §2

Sequence of Human MMP-9 (P14780 107-707 limits assumed): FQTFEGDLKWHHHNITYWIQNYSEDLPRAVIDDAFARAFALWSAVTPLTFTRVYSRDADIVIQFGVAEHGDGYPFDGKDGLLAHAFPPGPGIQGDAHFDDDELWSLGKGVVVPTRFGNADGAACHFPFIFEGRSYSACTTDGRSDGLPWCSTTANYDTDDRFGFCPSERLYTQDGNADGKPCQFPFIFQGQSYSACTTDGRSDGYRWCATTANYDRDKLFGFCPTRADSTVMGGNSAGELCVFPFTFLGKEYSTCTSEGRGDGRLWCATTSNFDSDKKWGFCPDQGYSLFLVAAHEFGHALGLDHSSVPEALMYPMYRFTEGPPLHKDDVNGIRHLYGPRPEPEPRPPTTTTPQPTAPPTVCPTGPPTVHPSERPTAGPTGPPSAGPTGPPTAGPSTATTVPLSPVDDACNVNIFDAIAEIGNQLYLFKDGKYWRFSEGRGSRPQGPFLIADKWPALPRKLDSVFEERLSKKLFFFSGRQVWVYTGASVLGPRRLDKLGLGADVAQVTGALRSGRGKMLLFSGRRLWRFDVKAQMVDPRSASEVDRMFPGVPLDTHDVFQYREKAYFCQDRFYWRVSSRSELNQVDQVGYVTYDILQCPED
Sequence of Human MMP-3 (P08254 100-477): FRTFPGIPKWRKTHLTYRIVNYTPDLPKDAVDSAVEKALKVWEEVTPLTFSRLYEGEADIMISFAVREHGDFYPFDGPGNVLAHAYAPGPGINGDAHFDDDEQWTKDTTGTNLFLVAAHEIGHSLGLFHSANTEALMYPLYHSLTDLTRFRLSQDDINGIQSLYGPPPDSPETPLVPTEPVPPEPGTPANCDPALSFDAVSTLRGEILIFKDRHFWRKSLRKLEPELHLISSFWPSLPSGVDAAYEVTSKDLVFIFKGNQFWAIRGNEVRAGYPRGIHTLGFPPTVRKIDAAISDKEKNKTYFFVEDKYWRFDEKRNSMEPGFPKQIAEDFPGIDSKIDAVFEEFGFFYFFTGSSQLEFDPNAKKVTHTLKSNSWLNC

Row | Substance | Collagenase activity inhibition percentage [1] [%] | MMP-2 inhibition value [2] | MMP-9 inhibition value [3] | MMP-3 inhibition value [4] [%] | MMP-1 inhibition value [5] [%]
1 | Ac-L-Arg-L-Asn-L-Arg-L-Cit-OH | 58.9 | 78.7 and 95.3 | 69.5 and 89.6 |  | 
2 | Ac-L-Arg-L-Asn-L-His-L-Cit-CONH-(CH2)15-CH3 | 26.8 |  |  |  | 
3 | Ac-L-Arg-L-His-L-His-L-Cit-OH | 60.6 | 101.4 | 63.1 | 39.1 | 34.7
4 | Palm-L-Arg-L-His-L-His-L-Cit-NH2 | 36.7 |  |  |  | 

Other lines, results leading:

Row | Collagenase activity inhibition percentage [1] [%] | MMP-2 inhibition value [2] | MMP-9 inhibition value [3] | MMP-3 inhibition value [4] [%] | MMP-1 inhibition value [5] [%] | Substance
5 | 55.4 |  |  |  |  | Ac-L-Ara-L-His-L-His-L-Cit-CONH-(CH2)15-CH3
6 | 60.5 |  |  |  |  | Ac-L-Arg-L-His-L-Arg-L-Cit-OH
7 | 26.8 |  |  |  |  | H-L-Arg-L-Asn-L-His-L-Cit-OH
8 | 31.3 |  |  |  |  | Palm-L-Arg-L-Asn-L-Arg-L-Cit-NH2
